Common to all, as to assay type: biochemical
One experiment addresses T1, PI3Kα (Homo sapiens, UniProt P42336).
T1 construct: His tag (C); made in house; host or cells: Tn5 insect cells, baculovirus BV-1075
The experiment can be described thus: PI3K KinaseGlo assay, PI3Kalpha. As to conditions: 10 nM enzyme, 1 μM ATP, 30 mins.

In a further experiment the target is T2, PI3Kδ (Homo sapiens, UniProt O00329).
T2 construct: His tag (C); made in house; host or cells: Tn5 insect cells, baculovirus BV1060 (vector LR415)
Description: PI3K KinaseGlo assay, PI3Kdelta. As to conditions: 10 nM enzyme, 1 μM ATP, 30 mins.

The next experiment addresses T3, PI3Kβ (Homo sapiens, UniProt P42338).
T3 construct: His tag (C); made in house; host or cells: Tn5 insect cells, baculovirus BV949 (vector LR280)
Description: PI3K KinaseGlo assay, PI3Kbeta. As to conditions: 25 nM enzyme, 1 μM ATP, 30 mins.

The target of the next experiment is T4, PI3Kγ (Homo sapiens, UniProt P48736, Q459R).
T4 construct: Constructs lacking the N-terminal 144 aa; His tag (C); made in house; host or cells: Tn5 insect cells, baculovirus BV950; construct from the Roger Williams lab (MRC LMB)
Description: PI3K KinaseGlo assay, PI3Kgamma. As to conditions: 150 nM enzyme, 1 μM ATP, 90 mins.

Bounds are passed on as bounds.

T4 sequence (P48736 with tags, fused parts or gaps Q459R): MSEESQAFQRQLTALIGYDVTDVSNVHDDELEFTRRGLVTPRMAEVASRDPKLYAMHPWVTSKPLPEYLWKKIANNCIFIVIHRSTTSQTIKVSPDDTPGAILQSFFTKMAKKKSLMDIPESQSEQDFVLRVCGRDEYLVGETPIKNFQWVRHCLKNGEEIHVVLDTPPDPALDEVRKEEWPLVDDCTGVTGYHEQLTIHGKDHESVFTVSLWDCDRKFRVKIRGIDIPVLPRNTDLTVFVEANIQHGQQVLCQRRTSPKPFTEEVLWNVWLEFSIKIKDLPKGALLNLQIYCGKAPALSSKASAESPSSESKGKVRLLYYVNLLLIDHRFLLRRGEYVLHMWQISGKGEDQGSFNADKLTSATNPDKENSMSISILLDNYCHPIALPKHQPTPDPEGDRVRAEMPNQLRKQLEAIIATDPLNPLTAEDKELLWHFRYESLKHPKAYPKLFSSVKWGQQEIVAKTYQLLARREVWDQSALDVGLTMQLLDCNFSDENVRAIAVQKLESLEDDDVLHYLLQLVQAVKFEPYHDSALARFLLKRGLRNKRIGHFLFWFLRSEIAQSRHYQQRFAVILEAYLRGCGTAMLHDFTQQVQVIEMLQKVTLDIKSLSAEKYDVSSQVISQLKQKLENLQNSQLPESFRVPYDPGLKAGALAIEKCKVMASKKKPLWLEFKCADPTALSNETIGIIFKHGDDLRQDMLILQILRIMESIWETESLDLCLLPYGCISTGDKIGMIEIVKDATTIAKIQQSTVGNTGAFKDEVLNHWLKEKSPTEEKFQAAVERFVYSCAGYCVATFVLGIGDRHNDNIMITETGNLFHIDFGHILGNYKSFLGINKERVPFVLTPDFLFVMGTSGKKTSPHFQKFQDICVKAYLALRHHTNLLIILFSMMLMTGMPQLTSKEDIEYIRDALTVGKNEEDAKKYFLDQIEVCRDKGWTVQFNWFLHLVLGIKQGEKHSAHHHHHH
T1 sequence (P42336 with tags, fused parts or gaps): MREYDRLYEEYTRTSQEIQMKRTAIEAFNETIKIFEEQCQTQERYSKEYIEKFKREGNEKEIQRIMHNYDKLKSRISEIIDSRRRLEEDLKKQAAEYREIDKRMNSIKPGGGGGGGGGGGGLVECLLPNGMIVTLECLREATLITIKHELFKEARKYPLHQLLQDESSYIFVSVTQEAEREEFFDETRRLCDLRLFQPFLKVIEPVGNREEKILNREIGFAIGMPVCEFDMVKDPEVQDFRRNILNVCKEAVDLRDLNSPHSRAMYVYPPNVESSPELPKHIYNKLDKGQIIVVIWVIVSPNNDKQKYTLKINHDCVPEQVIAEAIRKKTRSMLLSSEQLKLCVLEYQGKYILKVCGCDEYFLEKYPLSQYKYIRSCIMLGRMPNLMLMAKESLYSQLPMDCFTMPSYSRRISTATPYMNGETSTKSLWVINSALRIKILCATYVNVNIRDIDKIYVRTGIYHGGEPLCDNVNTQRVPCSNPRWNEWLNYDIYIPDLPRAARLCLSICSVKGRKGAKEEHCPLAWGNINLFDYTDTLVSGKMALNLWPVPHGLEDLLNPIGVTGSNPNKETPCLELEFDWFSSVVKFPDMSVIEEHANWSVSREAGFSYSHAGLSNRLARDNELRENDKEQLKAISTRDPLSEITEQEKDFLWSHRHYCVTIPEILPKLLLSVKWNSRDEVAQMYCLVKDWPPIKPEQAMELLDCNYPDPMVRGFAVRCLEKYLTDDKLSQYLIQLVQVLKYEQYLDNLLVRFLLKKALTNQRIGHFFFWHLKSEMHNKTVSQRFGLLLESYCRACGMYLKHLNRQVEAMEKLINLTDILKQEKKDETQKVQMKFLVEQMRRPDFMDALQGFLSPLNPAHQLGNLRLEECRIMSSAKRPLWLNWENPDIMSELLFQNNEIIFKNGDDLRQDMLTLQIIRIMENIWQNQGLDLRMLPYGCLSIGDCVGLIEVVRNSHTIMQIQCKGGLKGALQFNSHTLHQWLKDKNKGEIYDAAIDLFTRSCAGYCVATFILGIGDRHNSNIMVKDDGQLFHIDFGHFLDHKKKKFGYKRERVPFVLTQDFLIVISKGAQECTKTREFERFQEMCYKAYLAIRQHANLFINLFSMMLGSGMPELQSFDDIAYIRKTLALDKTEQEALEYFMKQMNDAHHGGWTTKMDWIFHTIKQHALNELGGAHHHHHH
T3 sequence (P42338 with tags, fused parts or gaps): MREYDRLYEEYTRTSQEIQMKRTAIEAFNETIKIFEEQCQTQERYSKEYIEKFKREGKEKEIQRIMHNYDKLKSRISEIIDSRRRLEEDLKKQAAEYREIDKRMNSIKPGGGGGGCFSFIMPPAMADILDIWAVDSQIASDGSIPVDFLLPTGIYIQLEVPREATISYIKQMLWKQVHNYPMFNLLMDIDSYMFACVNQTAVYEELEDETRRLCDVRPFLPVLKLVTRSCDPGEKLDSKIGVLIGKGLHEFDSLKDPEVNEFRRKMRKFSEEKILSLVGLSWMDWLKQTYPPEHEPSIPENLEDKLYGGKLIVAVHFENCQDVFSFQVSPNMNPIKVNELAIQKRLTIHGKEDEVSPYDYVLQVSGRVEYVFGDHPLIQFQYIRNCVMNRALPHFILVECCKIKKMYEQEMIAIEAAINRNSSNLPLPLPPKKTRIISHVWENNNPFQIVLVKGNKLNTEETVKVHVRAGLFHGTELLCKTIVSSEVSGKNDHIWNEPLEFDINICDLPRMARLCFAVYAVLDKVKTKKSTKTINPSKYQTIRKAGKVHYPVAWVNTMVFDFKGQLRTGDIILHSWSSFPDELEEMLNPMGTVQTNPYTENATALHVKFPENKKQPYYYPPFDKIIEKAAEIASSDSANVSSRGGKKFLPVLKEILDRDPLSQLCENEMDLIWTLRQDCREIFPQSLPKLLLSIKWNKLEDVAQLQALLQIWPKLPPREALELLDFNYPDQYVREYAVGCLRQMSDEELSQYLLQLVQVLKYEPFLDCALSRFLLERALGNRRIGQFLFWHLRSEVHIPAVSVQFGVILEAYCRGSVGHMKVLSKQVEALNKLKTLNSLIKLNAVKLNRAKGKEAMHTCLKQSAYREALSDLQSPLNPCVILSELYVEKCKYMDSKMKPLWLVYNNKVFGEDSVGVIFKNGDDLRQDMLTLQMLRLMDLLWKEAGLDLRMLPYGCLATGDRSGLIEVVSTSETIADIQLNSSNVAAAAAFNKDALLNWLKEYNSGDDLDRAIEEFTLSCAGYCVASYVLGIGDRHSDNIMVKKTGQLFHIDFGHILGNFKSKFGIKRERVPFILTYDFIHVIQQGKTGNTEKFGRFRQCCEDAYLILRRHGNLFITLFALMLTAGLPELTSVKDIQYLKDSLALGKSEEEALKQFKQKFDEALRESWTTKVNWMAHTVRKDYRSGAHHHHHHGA
T2 sequence (O00329 with tags, fused parts or gaps): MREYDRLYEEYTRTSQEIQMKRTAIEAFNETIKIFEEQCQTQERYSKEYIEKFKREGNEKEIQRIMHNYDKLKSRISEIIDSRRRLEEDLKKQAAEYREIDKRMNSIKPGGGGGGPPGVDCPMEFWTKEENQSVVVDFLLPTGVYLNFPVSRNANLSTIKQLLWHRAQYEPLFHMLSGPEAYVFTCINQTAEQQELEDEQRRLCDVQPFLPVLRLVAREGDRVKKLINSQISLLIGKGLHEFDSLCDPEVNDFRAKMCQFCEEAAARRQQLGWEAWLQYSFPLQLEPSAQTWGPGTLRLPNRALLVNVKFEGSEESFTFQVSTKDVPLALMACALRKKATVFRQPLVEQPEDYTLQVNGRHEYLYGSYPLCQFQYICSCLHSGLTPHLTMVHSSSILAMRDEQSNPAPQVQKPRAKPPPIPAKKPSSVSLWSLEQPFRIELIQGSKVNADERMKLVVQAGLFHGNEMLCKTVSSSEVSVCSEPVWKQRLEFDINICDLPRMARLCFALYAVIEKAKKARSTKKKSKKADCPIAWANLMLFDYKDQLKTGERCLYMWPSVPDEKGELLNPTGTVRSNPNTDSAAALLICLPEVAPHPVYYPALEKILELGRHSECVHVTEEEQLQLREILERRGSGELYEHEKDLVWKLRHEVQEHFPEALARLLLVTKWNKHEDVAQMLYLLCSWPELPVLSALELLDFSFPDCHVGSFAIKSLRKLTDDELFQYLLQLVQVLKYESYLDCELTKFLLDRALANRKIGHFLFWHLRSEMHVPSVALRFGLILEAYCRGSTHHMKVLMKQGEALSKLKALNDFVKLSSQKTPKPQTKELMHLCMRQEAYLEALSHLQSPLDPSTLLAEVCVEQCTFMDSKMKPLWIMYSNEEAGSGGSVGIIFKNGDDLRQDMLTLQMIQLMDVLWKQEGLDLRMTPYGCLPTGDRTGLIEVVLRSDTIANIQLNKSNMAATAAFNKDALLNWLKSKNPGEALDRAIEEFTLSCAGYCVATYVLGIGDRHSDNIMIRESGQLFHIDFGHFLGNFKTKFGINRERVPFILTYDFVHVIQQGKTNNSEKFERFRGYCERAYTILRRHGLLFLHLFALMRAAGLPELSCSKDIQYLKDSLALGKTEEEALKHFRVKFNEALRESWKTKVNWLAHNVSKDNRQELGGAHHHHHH

Take `CCN(CC)c1ncc2c(n1)-c1sc(NC(=O)N3CC[C@@H]4C[C@@]43C(N)=O)nc1CC2` [Example 19, (1S,5R)-2-Aza-bicyclo[3.1.0]hexane-1,2-dicarboxylic acid 1-amide 2-[(8-diethylamino-4,5-dihydro-thiazolo[4,5-h]quinazolin-2-yl)-amide]]: the half-maximal inhibitory concentration (IC50) amounted to 5.5 nM at PI3Kα, 77 nM at PI3Kδ, 588 nM against PI3Kβ and 123 nM against PI3Kγ.

Take `CCN(CC)c1ncc2c(n1)-c1sc(NC(=O)N3CC[C@@H](C)[C@H]3C(N)=O)nc1CC2` [Example 21, (2S,3R)-3-Methyl-pyrrolidine-1,2-dicarboxylic acid 2-amide 1-[(8-diethylamino-4,5-dihydro-thiazolo[4,5-h]quinazolin-2-yl)-amide]]: the IC50 is less than 3 nM against PI3Kα, 36 nM at PI3Kδ, 519 nM on PI3Kβ and 237 nM against PI3Kγ.

Consider `CCN(CC)c1ncc2c(n1)-c1sc(NC(=O)N3C[C@@H](N(C)C)C[C@H]3C(N)=O)nc1CC2` [Example 22, (2S,4S)-4-Dimethylamino-pyrrolidine-1,2-dicarboxylic acid 2-amide 1-[(8-diethylamino-4,5-dihydro-thiazolo[4,5-h]quinazolin-2-yl)-amide]], for which the IC50 against PI3Kα came out at 23.5 nM; at PI3Kδ it was 1900 nM; at PI3Kβ it was 6900 nM; at PI3Kγ, 262 nM.

Consider `CC(C)(C)c1ncc2c(n1)-c1sc(NC(=O)N3CCC3C(N)=O)nc1CC2` (centres unmarked) [Example 24, Azetidine-1,2-dicarboxylic acid 2-amide 1-[(8-tert-butyl-4,5-dihydro-thiazolo[4,5-h]quinazolin-2-yl)-amide]], for which the IC50 against PI3Kα came out at 7 nM; on PI3Kδ, 24 nM; against PI3Kβ, 135 nM; on PI3Kγ, 98 nM.

On to `CC(C)(C)c1ncc2c(n1)-c1sc(NC(=O)N3CC[C@H]3C(N)=O)nc1CC2` [Example 25, (S)-Azetidine-1,2-dicarboxylic acid 2-amide 1-[(8-tert-butyl-4,5-dihydro-thiazolo[4,5-h]quinazolin-2-yl)-amide]], for which the IC50 at PI3Kα was determined as 5.5 nM; on PI3Kδ, 45 nM; against PI3Kβ, 346 nM; against PI3Kγ, 122 nM.

In the case of `CCN(CC)c1ncc2c(n1)-c1sc(NC(=O)N3C[C@@H](O)C[C@H]3C(N)=O)nc1CC2` [Example 26, (2S,4S)-4-Hydroxy-pyrrolidine-1,2-dicarboxylic acid 2-amide 1-[(8-diethylamino-4,5-dihydro-thiazolo[4,5-h]quinazolin-2-yl)-amide]], the 50% inhibitory concentration (IC50) on PI3Kα was 6.5 nM; at PI3Kδ, 58 nM; on PI3Kβ, 328 nM; against PI3Kγ, 138 nM.

With `CCN(CC)c1ncc2c(n1)-c1sc(NC(=O)N3C[C@H](O)C[C@H]3C(N)=O)nc1CC2` [Example 27, (2S,4R)-4-Hydroxy-pyrrolidine-1,2-dicarboxylic acid 2-amide 1-[(8-diethylamino-4,5-dihydro-thiazolo[4,5-h]quinazolin-2-yl)-amide]], the IC50 worked out at 4.5 nM on PI3Kα, 72 nM against PI3Kδ, 397 nM against PI3Kβ and 97 nM against PI3Kγ.

Turning to `CC(C)(C)c1nc2c(s1)CCc1nc(NC(=O)N3CC[C@H]3C(N)=O)sc1-2` [Example 30, (S)-Azetidine-1,2-dicarboxylic acid 2-amide 1-[(7-tert-butyl-4,5-dihydro-benzo[1,2-d;3,4-d′]bisthiazol-2-yl)-amide]], the half-maximal inhibitory concentration (IC50) on PI3Kα is 23 nM; on PI3Kδ it was 294 nM; against PI3Kβ, 2140 nM; against PI3Kγ it was 119 nM.

As for `CN(C)[C@@H]1C[C@@H](C(N)=O)N(C(=O)Nc2nc3c(s2)-c2nc(C(C)(C)C)sc2CC3)C1` [Example 31, (2S,4R)-4-Dimethylamino-pyrrolidine-1,2-dicarboxylic acid 2-amide 1-[(7-tert-butyl-4,5-dihydro-benzo[1,2-d;3,4-d′]bisthiazol-2-yl)-amide]], the half-maximal inhibitory concentration (IC50) at PI3Kα stood at 51.5 nM; on PI3Kδ, 1940 nM; against PI3Kβ it was 5820 nM; against PI3Kγ it was 1230 nM.

Turning to `CC(C)(CF)c1nc2c(s1)CCc1nc(NC(=O)N3CCC[C@H]3C(N)=O)sc1-2` [Example 32, (S)-Pyrrolidine-1,2-dicarboxylic acid 2-amide 1-{[7-(2-fluoro-1,1-dimethyl-ethyl)-4,5-dihydro-benzo[1,2-d;3,4-d′]bisthiazol-2-yl]-amide}], the IC50 was 7 nM on PI3Kα, 43 nM against PI3Kδ, 1090 nM at PI3Kβ and 131 nM on PI3Kγ.

For “(R)-2-Benzyl-pyrrolidine-1,2-dicarboxylic acid 2-amide 1-[(8-diethylamino-4,5-dihydro-thiazolo[4,5-h]quinazolin-2-yl)-amide] [Example 3]”, the IC50 at PI3Kα came out at 45 nM; at PI3Kδ it was 740 nM; against PI3Kβ, 127 nM; on PI3Kγ, 1590 nM.

Values taken from patent US8357707B2, “2-carboxamide cycloamino ureas” (Novartis AG, priority 2009, dated 2013).
